8 molecules from PubChem BioAssay (NCI) can be followed below.

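1) Cells in 96-well plates. 2) Compound, 48 h, 5 concentrations. 3) Linear interpolation between surrounding doses. 4) Unreached endpoint = highest concentration. GI50 is the concentration that inhibits growth by half. TGI: concentration producing complete growth inhibition.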 A value given as a limit tells only on which side of the number the result lay.

Among the test systems are SNB-75 CNS; NCI/ADR-RES ovarian; DU-145 prostate; SF-295 CNS; UACC-257 melanoma; MALME-3M melanoma; MCF7 breast; CCRF-CEM leukemia; SK-MEL-2 melanoma; COLO 205 colon.
What all share (assay): NCI tumour cell line growth inhibition, 48 h

Regarding `CCN(CC)CCOc1ccc2c(c1)C(=O)c1cc(OCCN(CC)CC)ccc1-2`, the GI50 with SNB-75 CNS was 12.2 µM; in the experiment on NCI/ADR-RES ovarian it was 9.63 µM; in the experiment on DU-145 prostate it was 14.8 µM; in the experiment on SF-295 CNS it was 17.2 µM; in the experiment on UACC-257 melanoma, 11.5 µM; in the experiment on MALME-3M melanoma it was 15.6 µM. For the same molecule, the GI50 in the experiment on MCF7 breast was 3.44 µM; in the experiment with CCRF-CEM leukemia, 4.81 µM; in the experiment with SK-MEL-2 melanoma it was 11.3 µM; in the experiment on COLO 205 colon, 2.56 µM. Also, the TGI in the experiment with SNB-75 CNS is 24.9 µM; in the experiment on NCI/ADR-RES ovarian it was 33.2 µM; with DU-145 prostate, 81.5 µM; in the experiment on SF-295 CNS, 49.1 µM; in the experiment with UACC-257 melanoma, 24.9 µM; in the experiment with MALME-3M melanoma it was 33.6 µM. For the same molecule, the TGI was found to be 14.8 µM with MCF7 breast, 21 µM in the experiment with CCRF-CEM leukemia, 24.4 µM with SK-MEL-2 melanoma and 9.38 µM in the experiment on COLO 205 colon.

For `COc1cc2cc(Oc3ccc(NC(=O)Nc4ccc(Cl)c(C(F)(F)F)c4)cc3)c(C)nc2cc1OC`, the GI50 with SNB-75 CNS was 1.03 µM; in the experiment with NCI/ADR-RES ovarian, 1.06 µM; in the experiment with DU-145 prostate, 1.24 µM; in the experiment with SF-295 CNS, 0.899 µM; in the experiment with UACC-257 melanoma, 0.71 µM; in the experiment with MALME-3M melanoma, 1.33 µM. The GI50 with MCF7 breast was 1.08 µM; in the experiment with CCRF-CEM leukemia it was 1.01 µM; in the experiment on SK-MEL-2 melanoma, 0.799 µM; with COLO 205 colon, 0.66 µM. For the same molecule, the TGI was 4.9 µM in the experiment with SNB-75 CNS; 4.91 µM in the experiment with NCI/ADR-RES ovarian; 5.11 µM in the experiment on DU-145 prostate; 2.91 µM with SF-295 CNS; 2.36 µM in the experiment with UACC-257 melanoma; 5.71 µM in the experiment on MALME-3M melanoma. Also, the TGI turned out to be 3.88 µM in the experiment with MCF7 breast, 3.09 µM in the experiment with CCRF-CEM leukemia, 1.94 µM in the experiment with SK-MEL-2 melanoma and 1.31 µM with COLO 205 colon.

In the case of `COC(=O)OCc1ccc2c(c1)C(=O)c1c-2n(CCCBr)c(=O)c2cc([N+](=O)[O-])ccc12`, the GI50 in the experiment on SNB-75 CNS is 14.9 µM; in the experiment with NCI/ADR-RES ovarian, > 100 µM; in the experiment on DU-145 prostate it was > 100 µM; with SF-295 CNS it was 31.7 µM; in the experiment with UACC-257 melanoma, > 100 µM; in the experiment with MALME-3M melanoma it was > 100 µM. Also, the GI50 in the experiment on MCF7 breast is > 100 µM; in the experiment with CCRF-CEM leukemia, 45.9 µM; in the experiment on SK-MEL-2 melanoma, > 100 µM; with COLO 205 colon, > 100 µM. Besides, the TGI with SNB-75 CNS is 34.4 µM; with NCI/ADR-RES ovarian, > 100 µM; in the experiment on DU-145 prostate, > 100 µM; in the experiment on SF-295 CNS it was > 100 µM; with UACC-257 melanoma, > 100 µM; with MALME-3M melanoma it was > 100 µM. Further, the TGI in the experiment with MCF7 breast, in the experiment with CCRF-CEM leukemia, in the experiment on SK-MEL-2 melanoma and with COLO 205 colon was > 100 µM throughout.

As to `NC(Cc1ccnnc1)C(=O)O` (stereo not given), the TGI in the experiment on SNB-75 CNS, with NCI/ADR-RES ovarian, with DU-145 prostate, with SF-295 CNS, in the experiment on UACC-257 melanoma and in the experiment on MALME-3M melanoma was > 100 µM in each case. Besides, the TGI with MCF7 breast, with CCRF-CEM leukemia, with SK-MEL-2 melanoma and in the experiment with COLO 205 colon was > 100 µM in each case.

As to `C1=C(c2ccccc2)C(c2ccc(OCCN3CCCCC3)cc2)Oc2ccccc21` (stereo not given), the GI50 in the experiment with SNB-75 CNS was 1.6 µM; in the experiment on NCI/ADR-RES ovarian, 2.4 µM; with DU-145 prostate, 2.73 µM; in the experiment on SF-295 CNS it was 1.72 µM; in the experiment on UACC-257 melanoma it was 2.02 µM; with MALME-3M melanoma, 1.73 µM. The GI50 in the experiment on MCF7 breast was 0.441 µM; in the experiment on CCRF-CEM leukemia, 2.46 µM; with SK-MEL-2 melanoma, 2.03 µM; in the experiment on COLO 205 colon it was 1.62 µM. The TGI with SNB-75 CNS was 3.44 µM; in the experiment with NCI/ADR-RES ovarian, 8.16 µM; in the experiment with DU-145 prostate it was 9.12 µM; in the experiment on SF-295 CNS, 3.29 µM; in the experiment on UACC-257 melanoma, 4.15 µM; in the experiment on MALME-3M melanoma, 3.48 µM. The TGI in the experiment on MCF7 breast is 1.88 µM; with CCRF-CEM leukemia, 6.46 µM; in the experiment on SK-MEL-2 melanoma it was 4.33 µM; with COLO 205 colon, 3.15 µM.

In the case of `O=C1c2ccn(CCCCN3CCCCC3)c2C(=O)c2c1c(O)c1ccccc1c2O`, the GI50 is 8.45 µM in the experiment with SNB-75 CNS; 14.4 µM in the experiment on NCI/ADR-RES ovarian; 14.1 µM with DU-145 prostate; 13.2 µM in the experiment with SF-295 CNS; 5.83 µM in the experiment on UACC-257 melanoma; 7.58 µM in the experiment with MALME-3M melanoma. Moreover, the GI50 was 14.2 µM with MCF7 breast, 1.95 µM in the experiment with CCRF-CEM leukemia, > 100 µM in the experiment with SK-MEL-2 melanoma and 5.8 µM in the experiment with COLO 205 colon. Also, the TGI in the experiment with SNB-75 CNS is > 73.8 µM; in the experiment with NCI/ADR-RES ovarian, 55.6 µM; in the experiment with DU-145 prostate it was 30.3 µM; in the experiment with SF-295 CNS, 45.4 µM; in the experiment on UACC-257 melanoma, 12.2 µM; in the experiment with MALME-3M melanoma, 20.4 µM. For the same molecule, the TGI was > 62.3 µM with MCF7 breast, 4.61 µM in the experiment with CCRF-CEM leukemia, > 100 µM with SK-MEL-2 melanoma and > 52.2 µM in the experiment with COLO 205 colon.

Regarding `CS(=O)(=O)CCn1c(=O)c(Oc2ccc(F)cc2F)cc2cnc(NC3CCOCC3)nc21`, the GI50 in the experiment on SNB-75 CNS, with NCI/ADR-RES ovarian, with DU-145 prostate, in the experiment on SF-295 CNS, in the experiment with UACC-257 melanoma and with MALME-3M melanoma was > 25 µM throughout. In addition, the GI50 in the experiment with MCF7 breast, with CCRF-CEM leukemia, in the experiment with SK-MEL-2 melanoma and in the experiment with COLO 205 colon was > 25 µM in each case. The TGI in the experiment with SNB-75 CNS, with NCI/ADR-RES ovarian, in the experiment on DU-145 prostate, with SF-295 CNS, in the experiment with UACC-257 melanoma and with MALME-3M melanoma was > 25 µM throughout. The TGI with MCF7 breast, in the experiment on CCRF-CEM leukemia, in the experiment with SK-MEL-2 melanoma and in the experiment with COLO 205 colon was > 25 µM in each case.

For `Cc1cc(C)c2c(SCc3ccc(Cl)cc3Cl)nc(N)nc2n1`, the TGI with SNB-75 CNS is > 100 µM; with NCI/ADR-RES ovarian it was > 100 µM; with DU-145 prostate, > 100 µM; with SF-295 CNS it was > 100 µM; in the experiment on UACC-257 melanoma, 38.2 µM; with MALME-3M melanoma, > 100 µM. The TGI in the experiment with MCF7 breast, with CCRF-CEM leukemia, in the experiment with SK-MEL-2 melanoma and in the experiment on COLO 205 colon was > 100 µM each time.
